Assay results reported in paper PMC9186362, “Design and biological evaluation of substituted 5,7-dihydro-6H-indolo[2,3-c]quinolin-6-one as novel selective Haspin inhibitors” (Journal of Enzyme Inhibition and Medicinal Chemistry, 2022).

Experiments:
Test in all cases: SelectScreen ZLYTE
Type in all cases: biochemical
[1] = molecular target: T1, GSK3A (GSK3 alpha) (Homo sapiens, UniProt P49840); details: ATP Km, read-out: Percentage of inhibition
T1 construct: purchased Life Technologies (SelectScreen service)
Method: (§1) We further evaluated the selectivity profile of compound 55 on a larger panel of kinases (SelectScreen Whole Panel, Life Technologies). The inhibition profile of 55, evaluated at 1 μM, is depicted on a dendrogram on Figure 3 where kinases inhibited by a minimum of 80% are shown. A full list of the kinases tested is shown on Table S1 in supplementary information.

[2] = molecular target: AKT1 (PKB alpha) (Homo sapiens, UniProt P31749); details: ATP Km, read-out: Percentage of inhibition
Method: as §1

[3] = molecular target: T2, MATK (HYL) (Homo sapiens, UniProt P42679); details: ATP Km, read-out: Percentage of inhibition
T2 construct: purchased Life Technologies (SelectScreen Whole Panel service)
Method: as §1

[4] = molecular target: KIT (Homo sapiens, UniProt P10721); details: ATP Km, read-out: Percentage of inhibition
Method: as §1

[5] = molecular target: CSNK2A1 (CK2 alpha 1) (Homo sapiens, UniProt P68400); details: ATP Km, read-out: Percentage of inhibition
Method: as §1

[6] = molecular target: TYRO3 (RSE) (Homo sapiens, UniProt Q06418); details: ATP Km, read-out: Percentage of inhibition
Method: as §1

[7] = molecular target: T3, CSNK2A2 (CK2 alpha 2) (Homo sapiens, UniProt P19784); details: ATP Km, read-out: Percentage of inhibition
T3 construct: purchased Life Technologies (SelectScreen Whole Panel service)
Method: as §1

[8] = molecular target: T4, RET (Homo sapiens, UniProt P07949); details: ATP Km, read-out: Percentage of inhibition
T4 construct: purchased Life Technologies
Method: as §1

[9] = molecular target: T5, FGFR3 K650E (Homo sapiens, UniProt P22607, K650E); details: ATP Km, read-out: Percentage of inhibition
T5 construct: purchased Life Technologies (SelectScreen Whole Panel service)
Method: as §1

[10] = molecular target: T6, MAP4K4 (HGK) (Homo sapiens, UniProt O95819); details: ATP Km, read-out: Percentage of inhibition
T6 construct: purchased Life Technologies (SelectScreen service)
Method: as §1

[11] = molecular target: T7, NTRK2 (TRKB) (Homo sapiens, UniProt Q16620); details: ATP Km, read-out: Percentage of inhibition
T7 construct: purchased Life Technologies (SelectScreen service)
Method: as §1

[12] = molecular target: T8, PIM1 (Homo sapiens, UniProt P11309); details: ATP Km, read-out: Percentage of inhibition
T8 construct: purchased Life Technologies (SelectScreen service)
Method: as §1

[13] = molecular target: AMPK (A2/B1/G2) (Homo sapiens, UniProt P54646); details: ATP Km, read-out: Percentage of inhibition
Method: as §1

[14] = molecular target: T9, MARK4 (Homo sapiens, UniProt Q96L34); details: ATP Km, read-out: Percentage of inhibition
T9 construct: purchased Life Technologies
Method: as §1

[15] = molecular target: T10, HIPK2 (Homo sapiens, UniProt Q9H2X6); details: ATP Km, read-out: Percentage of inhibition
T10 construct: purchased Life Technologies (SelectScreen service)
Method: as §1

[16] = molecular target: PTK6 (Brk) (Homo sapiens, UniProt Q13882); details: ATP Km, read-out: Percentage of inhibition
Method: as §1

[17] = molecular target: MYLK2 (skMLCK) (Homo sapiens, UniProt Q9H1R3); details: ATP Km, read-out: Percentage of inhibition
Method: as §1

[18] = molecular target: T11, RPS6KA5 (MSK1) (Homo sapiens, UniProt O75582); details: ATP Km, read-out: Percentage of inhibition
T11 construct: purchased Life Technologies
Method: as §1

[19] = molecular target: T12, STK4 (MST1) (Homo sapiens, UniProt Q13043); details: ATP Km, read-out: Percentage of inhibition
T12 construct: purchased Life Technologies (SelectScreen Whole Panel)
Method: as §1

[20] = molecular target: T13, PHKG1 (Homo sapiens, UniProt Q16816); details: ATP Km, read-out: Percentage of inhibition
T13 construct: purchased Life Technologies
Method: as §1

[21] = molecular target: T14, ABL1 E255K (Homo sapiens, UniProt P00519, E255K); details: ATP Km, read-out: Percentage of inhibition
T14 construct: purchased Life Technologies
Method: as §1

[22] = molecular target: T15, RET S891A (Homo sapiens, UniProt P07949, S891A); details: ATP Km, read-out: Percentage of inhibition
T15 construct: purchased Life Technologies
Method: as §1

[23] = molecular target: AMPK (A2/B2/G3) (Homo sapiens, UniProt P54646); details: ATP Km, read-out: Percentage of inhibition
Method: as §1

[24] = molecular target: T16, FGFR3 V555M (Homo sapiens, UniProt P22607, V555M); details: ATP Km, read-out: Percentage of inhibition
T16 construct: purchased Life Technologies (SelectScreen Whole Panel service)
Method: as §1

[25] = molecular target: T17, SGK (SGK1) (Homo sapiens, UniProt O00141); details: ATP Km, read-out: Percentage of inhibition
T17 construct: purchased Life Technologies
Method: as §1

[26] = molecular target: T18, MAP2K2 (MEK2) (Homo sapiens, UniProt P36507); details: ATP 100 µM, read-out: Percentage of inhibition
T18 construct: purchased Life Technologies
Method: as §1

[27] = molecular target: T19, EEF2K (Homo sapiens, UniProt O00418); details: ATP Km, read-out: Percentage of inhibition
T19 construct: purchased Life Technologies (SelectScreen)
Method: as §1

[28] = molecular target: T20, ABL1 (Homo sapiens, UniProt P00519); details: ATP Km, read-out: Percentage of inhibition
T20 construct: purchased Life Technologies (SelectScreen Whole Panel service)
Method: as §1

[29] = molecular target: T21, RPS6KA1 (RSK1) (Homo sapiens, UniProt Q15418); details: ATP Km, read-out: Percentage of inhibition
T21 construct: purchased Life Technologies (SelectScreen service)
Method: as §1

[30] = molecular target: T22, AMPK (A2/B1/G3) (Homo sapiens, UniProt P54646); details: ATP Km, read-out: Percentage of inhibition
T22 construct: purchased Life Technologies (SelectScreen Whole Panel service)
Method: as §1

[31] = molecular target: MAPK12 (p38 gamma) (Homo sapiens, UniProt P53778); details: ATP Km, read-out: Percentage of inhibition
Method: as §1

[32] = molecular target: T23, DAPK3 (ZIPK) (Homo sapiens, UniProt O43293); details: ATP Km, read-out: Percentage of inhibition
T23 construct: purchased Life Technologies (SelectScreen Whole Panel service)
Method: as §1

[33] = molecular target: T24, DYRK1B (Homo sapiens, UniProt Q9Y463); details: ATP Km, read-out: Percentage of inhibition
T24 construct: purchased Life Technologies
Method: as §1

[34] = molecular target: T25, CAMK1D (CaMKI delta) (Homo sapiens, UniProt Q8IU85); details: ATP Km, read-out: Percentage of inhibition
T25 construct: purchased Life Technologies (SelectScreen)
Method: as §1

[35] = molecular target: T26, PTK2 (FAK) (Homo sapiens, UniProt Q05397); details: ATP Km, read-out: Percentage of inhibition
T26 construct: purchased Life Technologies (SelectScreen service)
Method: as §1

[36] = molecular target: T27, MAP4K2 (GCK) (Homo sapiens, UniProt Q12851); details: ATP Km, read-out: Percentage of inhibition
T27 construct: purchased Life Technologies (SelectScreen Whole Panel service)
Method: as §1

[37] = molecular target: T28, RPS6KA3 (RSK2) (Homo sapiens, UniProt P51812); details: ATP Km, read-out: Percentage of inhibition
T28 construct: purchased Life Technologies (SelectScreen service)
Method: as §1

[38] = molecular target: T29, INSRR (IRR) (Homo sapiens, UniProt P14616); details: ATP Km, read-out: Percentage of inhibition
T29 construct: purchased Life Technologies (SelectScreen Whole Panel)
Method: as §1

T18 sequence (P36507 whole entry): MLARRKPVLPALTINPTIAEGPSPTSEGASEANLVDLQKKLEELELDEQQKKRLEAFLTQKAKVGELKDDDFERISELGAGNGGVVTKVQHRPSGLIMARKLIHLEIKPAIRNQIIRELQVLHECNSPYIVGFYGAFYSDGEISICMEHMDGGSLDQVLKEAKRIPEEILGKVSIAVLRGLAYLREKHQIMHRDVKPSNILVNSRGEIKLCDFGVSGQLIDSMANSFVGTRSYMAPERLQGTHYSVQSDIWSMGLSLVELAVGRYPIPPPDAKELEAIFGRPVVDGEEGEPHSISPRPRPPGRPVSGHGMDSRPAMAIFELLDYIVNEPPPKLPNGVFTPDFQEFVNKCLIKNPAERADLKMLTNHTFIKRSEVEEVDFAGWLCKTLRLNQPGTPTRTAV
PTK6 (Brk), sequence (Q13882 whole entry): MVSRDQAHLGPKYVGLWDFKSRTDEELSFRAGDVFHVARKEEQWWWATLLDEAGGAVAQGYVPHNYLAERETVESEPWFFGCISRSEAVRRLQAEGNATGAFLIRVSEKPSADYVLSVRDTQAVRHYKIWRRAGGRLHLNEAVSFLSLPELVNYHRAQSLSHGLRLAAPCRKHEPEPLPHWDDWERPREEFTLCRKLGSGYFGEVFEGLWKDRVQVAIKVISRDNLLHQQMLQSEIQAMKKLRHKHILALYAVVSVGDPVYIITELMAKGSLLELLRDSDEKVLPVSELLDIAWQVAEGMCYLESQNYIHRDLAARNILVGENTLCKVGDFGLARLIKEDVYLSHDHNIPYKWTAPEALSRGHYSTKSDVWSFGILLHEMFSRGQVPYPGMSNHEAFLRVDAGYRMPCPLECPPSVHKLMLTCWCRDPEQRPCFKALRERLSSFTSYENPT
T16 sequence (P22607 23-806 V555M): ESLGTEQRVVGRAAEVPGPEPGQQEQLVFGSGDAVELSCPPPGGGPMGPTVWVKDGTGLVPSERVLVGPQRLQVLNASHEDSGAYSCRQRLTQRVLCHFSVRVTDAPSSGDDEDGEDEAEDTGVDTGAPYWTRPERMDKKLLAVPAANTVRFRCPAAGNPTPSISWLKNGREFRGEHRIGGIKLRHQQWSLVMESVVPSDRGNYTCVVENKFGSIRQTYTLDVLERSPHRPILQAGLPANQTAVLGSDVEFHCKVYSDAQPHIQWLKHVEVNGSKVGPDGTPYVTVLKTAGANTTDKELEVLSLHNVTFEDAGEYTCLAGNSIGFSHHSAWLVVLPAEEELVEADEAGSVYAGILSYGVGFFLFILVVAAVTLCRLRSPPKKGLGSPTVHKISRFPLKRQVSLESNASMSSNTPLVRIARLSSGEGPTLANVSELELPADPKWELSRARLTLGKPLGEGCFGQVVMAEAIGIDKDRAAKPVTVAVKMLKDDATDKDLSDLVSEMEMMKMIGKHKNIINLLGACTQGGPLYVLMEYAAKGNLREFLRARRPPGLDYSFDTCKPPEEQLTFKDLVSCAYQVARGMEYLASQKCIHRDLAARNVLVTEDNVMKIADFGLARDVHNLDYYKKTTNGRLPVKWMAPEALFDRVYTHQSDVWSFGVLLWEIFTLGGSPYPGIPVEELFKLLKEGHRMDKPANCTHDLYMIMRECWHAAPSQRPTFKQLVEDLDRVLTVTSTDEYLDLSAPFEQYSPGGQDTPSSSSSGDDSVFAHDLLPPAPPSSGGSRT
CSNK2A1 (CK2 alpha 1), sequence (P68400 whole entry): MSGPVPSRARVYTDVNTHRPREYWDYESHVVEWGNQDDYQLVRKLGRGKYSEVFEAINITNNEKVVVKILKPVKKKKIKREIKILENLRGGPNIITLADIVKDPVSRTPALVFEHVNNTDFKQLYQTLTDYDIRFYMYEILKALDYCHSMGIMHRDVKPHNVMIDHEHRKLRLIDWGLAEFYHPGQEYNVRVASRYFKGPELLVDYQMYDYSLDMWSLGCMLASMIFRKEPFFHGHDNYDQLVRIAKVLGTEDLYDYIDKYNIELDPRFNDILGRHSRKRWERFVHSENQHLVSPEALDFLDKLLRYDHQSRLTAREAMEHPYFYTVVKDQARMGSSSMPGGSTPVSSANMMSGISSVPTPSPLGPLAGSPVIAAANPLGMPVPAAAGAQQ
T28 sequence (P51812 whole entry): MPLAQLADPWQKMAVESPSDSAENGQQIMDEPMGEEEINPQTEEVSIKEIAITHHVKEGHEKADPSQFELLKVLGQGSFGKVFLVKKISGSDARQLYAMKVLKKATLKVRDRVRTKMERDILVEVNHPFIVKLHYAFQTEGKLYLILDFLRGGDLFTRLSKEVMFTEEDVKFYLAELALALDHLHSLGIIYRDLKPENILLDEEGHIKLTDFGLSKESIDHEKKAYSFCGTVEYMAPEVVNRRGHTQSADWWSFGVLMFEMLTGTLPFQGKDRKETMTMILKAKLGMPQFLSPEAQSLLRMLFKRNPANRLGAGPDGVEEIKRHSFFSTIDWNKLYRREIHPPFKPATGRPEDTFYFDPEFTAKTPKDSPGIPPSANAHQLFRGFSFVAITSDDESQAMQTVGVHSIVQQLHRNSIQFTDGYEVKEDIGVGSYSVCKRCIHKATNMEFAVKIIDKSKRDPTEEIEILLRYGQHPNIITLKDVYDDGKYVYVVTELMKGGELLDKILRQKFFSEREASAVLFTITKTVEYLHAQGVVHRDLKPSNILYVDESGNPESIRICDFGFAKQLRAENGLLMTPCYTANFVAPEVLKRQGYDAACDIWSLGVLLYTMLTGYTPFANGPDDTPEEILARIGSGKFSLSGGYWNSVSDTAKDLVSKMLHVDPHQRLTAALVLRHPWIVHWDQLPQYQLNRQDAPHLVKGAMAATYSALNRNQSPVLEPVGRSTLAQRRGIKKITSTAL
AMPK (A2/B1/G2), sequence (P54646 whole entry): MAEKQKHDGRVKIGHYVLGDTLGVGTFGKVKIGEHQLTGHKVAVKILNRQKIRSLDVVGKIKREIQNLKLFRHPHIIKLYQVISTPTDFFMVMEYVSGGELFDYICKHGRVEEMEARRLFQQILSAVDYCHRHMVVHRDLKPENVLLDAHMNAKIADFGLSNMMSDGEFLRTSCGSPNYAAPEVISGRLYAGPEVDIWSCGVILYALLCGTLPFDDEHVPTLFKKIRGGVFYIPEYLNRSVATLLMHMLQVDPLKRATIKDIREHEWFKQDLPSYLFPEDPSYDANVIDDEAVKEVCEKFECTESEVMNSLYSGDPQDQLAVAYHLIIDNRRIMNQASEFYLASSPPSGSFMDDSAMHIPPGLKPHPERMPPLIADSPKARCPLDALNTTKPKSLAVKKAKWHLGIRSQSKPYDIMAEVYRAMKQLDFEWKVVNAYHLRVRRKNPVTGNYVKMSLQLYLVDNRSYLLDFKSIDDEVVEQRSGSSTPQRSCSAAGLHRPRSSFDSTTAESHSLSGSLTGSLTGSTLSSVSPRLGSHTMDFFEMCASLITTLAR
AMPK (A2/B1/G2), sequence (Q9Y478 whole entry partner): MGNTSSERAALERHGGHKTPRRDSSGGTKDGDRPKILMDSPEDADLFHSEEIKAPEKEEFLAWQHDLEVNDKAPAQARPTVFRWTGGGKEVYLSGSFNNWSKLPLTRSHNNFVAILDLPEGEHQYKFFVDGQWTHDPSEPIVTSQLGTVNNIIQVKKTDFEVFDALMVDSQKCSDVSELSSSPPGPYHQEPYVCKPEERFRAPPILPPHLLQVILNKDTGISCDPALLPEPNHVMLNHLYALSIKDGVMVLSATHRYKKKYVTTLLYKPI
AMPK (A2/B1/G2), sequence (Q9UGJ0 whole entry partner): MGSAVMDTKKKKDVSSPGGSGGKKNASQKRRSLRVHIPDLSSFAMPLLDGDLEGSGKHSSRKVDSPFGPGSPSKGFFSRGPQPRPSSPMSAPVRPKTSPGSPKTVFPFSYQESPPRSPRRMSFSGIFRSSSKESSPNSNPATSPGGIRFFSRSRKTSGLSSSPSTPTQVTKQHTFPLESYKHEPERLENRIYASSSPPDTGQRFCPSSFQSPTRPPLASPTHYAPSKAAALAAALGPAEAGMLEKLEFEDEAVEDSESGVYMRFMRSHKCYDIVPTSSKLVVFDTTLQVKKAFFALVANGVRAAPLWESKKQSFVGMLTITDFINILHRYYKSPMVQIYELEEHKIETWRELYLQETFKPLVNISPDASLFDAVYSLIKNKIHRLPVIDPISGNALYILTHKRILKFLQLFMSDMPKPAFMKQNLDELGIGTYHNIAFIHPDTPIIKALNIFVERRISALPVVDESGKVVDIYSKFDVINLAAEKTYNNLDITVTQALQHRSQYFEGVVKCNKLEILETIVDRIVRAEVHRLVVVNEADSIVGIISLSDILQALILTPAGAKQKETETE
T22 sequence (P54646 whole entry): as the sequence (P54646 whole entry) above
T22 sequence (Q9Y478 whole entry partner): as the sequence (Q9Y478 whole entry partner) above
T22 sequence (Q9UGI9 whole entry partner): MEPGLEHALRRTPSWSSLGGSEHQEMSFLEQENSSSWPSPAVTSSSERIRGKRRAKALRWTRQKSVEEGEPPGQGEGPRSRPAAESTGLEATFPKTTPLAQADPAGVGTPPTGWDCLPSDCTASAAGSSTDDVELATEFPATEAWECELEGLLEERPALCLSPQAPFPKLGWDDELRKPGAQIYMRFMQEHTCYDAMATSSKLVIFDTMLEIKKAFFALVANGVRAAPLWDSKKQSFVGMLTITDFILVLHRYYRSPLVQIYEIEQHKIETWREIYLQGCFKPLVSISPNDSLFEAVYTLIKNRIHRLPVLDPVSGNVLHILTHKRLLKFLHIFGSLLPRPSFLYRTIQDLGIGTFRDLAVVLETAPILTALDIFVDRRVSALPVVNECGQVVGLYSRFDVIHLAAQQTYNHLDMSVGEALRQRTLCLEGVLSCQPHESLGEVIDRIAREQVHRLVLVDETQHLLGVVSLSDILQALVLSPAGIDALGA
T5 sequence (P22607 23-806 K650E): as the sequence (P22607 23-806 V555M) above, with M533V, K628E counted along it

## COc1ccc2[nH]c3c(=O)[nH]c4ccc(O)cc4c3c2c1 [Compound 55, 2-Hydroxy-10-methoxy-5,7-dihydro-6H-indolo[2,3-c]quinolin-6-one]
[1]
  inhibition at 1 µM: 82%
[2]
  inhibition at 1 µM: 6%
[3]
  inhibition at 1 µM: 11%
[4]
  inhibition at 1 µM: 6%
[5]
  inhibition at 1 µM: 14%
[6]
  inhibition at 1 µM: 60%
[7]
  inhibition at 1 µM: 17%
[8]
  inhibition at 1 µM: 97%
[9]
  inhibition at 1 µM: 43%
[10]
  inhibition at 1 µM: 81%
[11]
  inhibition at 1 µM: 80%
[12]
  inhibition at 1 µM: 71%
[13]
  inhibition at 1 µM: 63%
[14]
  inhibition at 1 µM: 31%
[15]
  inhibition at 1 µM: 74%
[16]
  inhibition at 1 µM: 19%
[17]
  inhibition at 1 µM: 61%
[18]
  inhibition at 1 µM: 28%
[19]
  inhibition at 1 µM: 99%
[20]
  inhibition at 1 µM: 32%
[21]
  inhibition at 1 µM: 39%
[22]
  inhibition at 1 µM: 96%
[23]
  inhibition at 1 µM: 57%
[24]
  inhibition at 1 µM: 46%
[25]
  inhibition at 1 µM: 29%
[26]
  inhibition at 1 µM: 87%
[27]
  inhibition at 1 µM: 7%
[28]
  inhibition at 1 µM: 43%
[29]
  inhibition at 1 µM: 89%
[30]
  inhibition at 1 µM: 42%
[31]
  inhibition at 1 µM: 19%
[32]
  inhibition at 1 µM: 44%
[33]
  inhibition at 1 µM: 96%
[34]
  inhibition at 1 µM: 8%
[35]
  inhibition at 1 µM: 25%
[36]
  inhibition at 1 µM: 47%
[37]
  inhibition at 1 µM: 83%
[38]
  inhibition at 1 µM: 52%
